Data as given in PMC5702532 (Bioconjugate chemistry, 2016).
Bridge positions count the residues as written; N and C are the ends. Ends that are not written are not given here.

Experiments:
[1] = system: MCF-7, MDA-MB-231, A-549 and PC-3 cells; assay: Confocal fluorescence detection of cell entry in live carcinoma cells; type: cell-based, human; details: 10 μM in media for 60 min; live cells washed 3×; confocal microscopy, TAMRA filter; breast (MCF-7, MDA-MB-231), lung (A-549), prostate (PC-3)
[2] = target: XPNPEP1, APaseP human recombinant protein (Homo sapiens, UniProt Q9NQW7); assay: Biacore binding affinity assay
XPNPEP1, APaseP human recombinant protein, sequence (Q9NQW7 whole entry): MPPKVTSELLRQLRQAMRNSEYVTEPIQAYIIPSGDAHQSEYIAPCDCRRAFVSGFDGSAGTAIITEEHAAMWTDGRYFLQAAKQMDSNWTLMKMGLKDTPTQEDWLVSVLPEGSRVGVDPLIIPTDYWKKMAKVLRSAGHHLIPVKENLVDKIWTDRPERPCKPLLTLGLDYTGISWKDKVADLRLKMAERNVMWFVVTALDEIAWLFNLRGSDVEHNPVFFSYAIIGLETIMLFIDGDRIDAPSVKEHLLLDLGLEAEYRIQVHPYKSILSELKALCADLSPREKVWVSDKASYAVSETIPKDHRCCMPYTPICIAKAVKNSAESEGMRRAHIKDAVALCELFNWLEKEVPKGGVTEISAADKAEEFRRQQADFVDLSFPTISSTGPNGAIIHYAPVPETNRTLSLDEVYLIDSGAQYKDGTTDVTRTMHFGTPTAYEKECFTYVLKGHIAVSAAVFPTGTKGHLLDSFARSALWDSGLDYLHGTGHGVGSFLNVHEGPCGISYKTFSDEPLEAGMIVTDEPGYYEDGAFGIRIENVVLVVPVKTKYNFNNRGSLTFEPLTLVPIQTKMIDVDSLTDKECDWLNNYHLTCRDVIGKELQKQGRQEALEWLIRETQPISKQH

Sequence | Cell entry (fluorescence detection) [1] | Kd [2] [µM]
CPGPEGAGC (disulfide 1-9 (inferred)) | did not enter breast-derived cells | 
RPPGFSPFR [Bradykinin] |  | 15.3 ± 8
